# Reference: PubChem BioAssay (NCI)
#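 Cultured in 96-well plates, cells were exposed to test compound for 48 hours across five concentrations. GI50: concentration for 50% inhibition of growth. TGI marks complete inhibition of growth.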
# Columns and labels:
# Experiment in all cases: inhibition of tumour cell growth, NCI panel, 48 h
# [1] = system: NCI-H460 lung
# [2] = system: NCI-H522 lung
# [3] = system: NCI/ADR-RES ovarian
# [4] = system: OVCAR-3 ovarian
# [5] = system: OVCAR-4 ovarian
# [6] = system: OVCAR-5 ovarian
# [7] = system: OVCAR-8 ovarian
# [8] = system: PC-3 prostate
# [9] = system: RPMI-8226 leukemia
# [10] = system: RXF 393 renal
# [11] = system: SF-268 CNS
# [12] = system: SF-295 CNS
# [13] = system: SF-539 CNS
# [14] = system: SK-MEL-2 melanoma
# [15] = system: SK-MEL-28 melanoma
# [16] = system: SK-MEL-5 melanoma
# [17] = system: SN12C renal
# [18] = system: SNB-19 CNS
# [19] = system: SNB-75 CNS
# [20] = system: SR leukemia
# [21] = system: SW-620 colon
# [22] = system: TK-10 renal
# [23] = system: U251 CNS
# [24] = system: UACC-257 melanoma
# [25] = system: UACC-62 melanoma
# [26] = system: UO-31 renal
structure (smiles),measurement,setting,value
CN1CCN(CCOc2ccc(-c3cnc4c(-c5cccc(F)c5F)cnn4c3)cc2)CC1,TGI,[1],3190 nM
same,GI50,[2],1590 nM
same,TGI,[2],3270 nM
same,GI50,[3],2210 nM
same,TGI,[3],5490 nM
same,GI50,[4],1710 nM
same,TGI,[4],3420 nM
same,GI50,[5],1280 nM
same,TGI,[5],2950 nM
same,GI50,[6],1990 nM
same,TGI,[6],4430 nM
same,GI50,[7],2100 nM
same,TGI,[7],5260 nM
same,GI50,[8],1960 nM
same,TGI,[8],5640 nM
same,GI50,[9],1450 nM
same,TGI,[9],4010 nM
same,GI50,[10],1690 nM
same,TGI,[10],3490 nM
same,GI50,[11],2150 nM
same,TGI,[11],5240 nM
same,GI50,[12],1800 nM
same,TGI,[12],3330 nM
same,GI50,[13],1740 nM
same,TGI,[13],3170 nM
same,GI50,[14],15500 nM
same,TGI,[14],31000 nM
same,GI50,[15],1770 nM
same,TGI,[15],3260 nM
same,GI50,[16],1670 nM
same,TGI,[16],3070 nM
same,GI50,[17],2080 nM
same,TGI,[17],4670 nM
same,GI50,[18],1910 nM
same,TGI,[18],3880 nM
same,GI50,[19],1410 nM
same,TGI,[19],2730 nM
same,GI50,[20],282 nM
same,TGI,[20],1160 nM
same,GI50,[21],1860 nM
same,TGI,[21],3590 nM
same,GI50,[22],2010 nM
same,TGI,[22],3620 nM
same,GI50,[23],1440 nM
same,TGI,[23],2940 nM
same,GI50,[24],1770 nM
same,TGI,[24],3490 nM
same,GI50,[25],1840 nM
same,TGI,[25],3610 nM
same,GI50,[26],1250 nM
same,TGI,[26],2550 nM
